According to the supplement of paper PMC5908809:

How the values were obtained:
Details in all cases: 72 h
KHYG-1 (IL-2 2.5 ng/mL) [1] = assay: percent inhibition of viability; higher = more inhibition
NK-92 (IL-2 2.5 ng/mL) [2] = assay: as above
YT (IL-2 2.5 ng/mL) [3] = assay: as above
KAI3 (IL-2 2.5 ng/mL) [4] = assay: as above
[5] = test system: normal primary NK cells, pool 1 (3 donors) (IL-2 2.5 ng/mL); assay: as above
SNK-6 (IL-2 2.5 ng/mL) [6] = assay: as above
DERL-7 (IL-2 2.5 ng/mL) [7] = assay: as above
NKL (IL-2 2.5 ng/mL) [8] = assay: as above
[9] = test system: normal primary NK cells, pool 1 (3 donors), resting (IL-2 0 ng/mL); assay: as above
NK-YS (IL-2 2.5 ng/mL) [10] = assay: as above
KHYG-1 (IL-2 2.5 ng/mL) [11] = assay: drug sensitivity score (DSS) (DSS units); higher = more sensitive; extreme values may be limits of the assay
NK-92 (IL-2 2.5 ng/mL) [12] = assay: as above
YT (IL-2 2.5 ng/mL) [13] = assay: as above
KAI3 (IL-2 2.5 ng/mL) [14] = assay: as above
[15] = test system: normal primary NK cells, pool 1 (3 donors) (IL-2 2.5 ng/mL); assay: as above
SNK-6 (IL-2 2.5 ng/mL) [16] = assay: as above
DERL-7 (IL-2 2.5 ng/mL) [17] = assay: as above
NKL (IL-2 2.5 ng/mL) [18] = assay: as above
[19] = test system: normal primary NK cells, pool 1 (3 donors), resting (IL-2 0 ng/mL); assay: as above
NK-YS (IL-2 2.5 ng/mL) [20] = assay: as above
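Wherever percent inhibition of viability is given: normalised to DMSO-only wells as negative and benzethonium chloride as positive control.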

Oc1ncc(N(CCCl)CCCl)c(O)n1 [Uracil mustard] (max concentration tested 10000 nM)
percent inhibition of viability [%]
Details | DERL-7 (IL-2 2.5 ng/mL) [7] | KAI3 (IL-2 2.5 ng/mL) [4] | KHYG-1 (IL-2 2.5 ng/mL) [1] | NK-92 (IL-2 2.5 ng/mL) [2] | NK-YS (IL-2 2.5 ng/mL) [10] | NKL (IL-2 2.5 ng/mL) [8] | SNK-6 (IL-2 2.5 ng/mL) [6] | YT (IL-2 2.5 ng/mL) [3] | [5] | [9]
1 nM | -3.55 | -2.41 | -4.85 | -13 | -4.38 | -13 | -5.93 | -3.44 | 1.1 | 1.93
10 nM | -2.92 | -4.28 | -7.99 | 2.85 | -2.31 | -8.44 | -12.3 | -2.84 | 14.8 | 12.8
100 nM | 0.29 | 4.07 | -5.32 | -5.3 | -0.87 | 1.52 | -16.6 | -1.58 | 6.41 | 14.2
1000 nM | 1.68 | 10.1 | 0.5 | 11.1 | 8.35 | 7.38 | -20.1 | 6.78 | 7.51 | 7.77
10000 nM | -8.73 | 23.1 | 6.88 | 19.6 | 16.4 | 14.1 | -11.1 | 8.3 | 12.4 | 16.2

Details | drug sensitivity score
DERL-7 (IL-2 2.5 ng/mL) [17] | 0
KAI3 (IL-2 2.5 ng/mL) [14] | 1.5
KHYG-1 (IL-2 2.5 ng/mL) [11] | 0
NK-92 (IL-2 2.5 ng/mL) [12] | 1.65
NK-YS (IL-2 2.5 ng/mL) [20] | 1.03
NKL (IL-2 2.5 ng/mL) [18] | 0.45
SNK-6 (IL-2 2.5 ng/mL) [16] | 0
YT (IL-2 2.5 ng/mL) [13] | 0
[15] | 0
[19] | 1.83
